Reference: patent US11634412B2, “3-phosphoglycerate dehydrogenase inhibitors and uses thereof” (Raze Therapeutics, Inc., priority 2016, dated 2023)

Target: T1, Full length (FL) 3-Phosphoglycerate Dehydrogenase (PHGDH) (Homo sapiens, UniProt O43175)
T1 construct: Full length (FL) 3-Phosphoglycerate Dehydrogenase (PHGDH) Diaphorase coupled assay (500 uM NAD)
T1 sequence (O43175 1-533): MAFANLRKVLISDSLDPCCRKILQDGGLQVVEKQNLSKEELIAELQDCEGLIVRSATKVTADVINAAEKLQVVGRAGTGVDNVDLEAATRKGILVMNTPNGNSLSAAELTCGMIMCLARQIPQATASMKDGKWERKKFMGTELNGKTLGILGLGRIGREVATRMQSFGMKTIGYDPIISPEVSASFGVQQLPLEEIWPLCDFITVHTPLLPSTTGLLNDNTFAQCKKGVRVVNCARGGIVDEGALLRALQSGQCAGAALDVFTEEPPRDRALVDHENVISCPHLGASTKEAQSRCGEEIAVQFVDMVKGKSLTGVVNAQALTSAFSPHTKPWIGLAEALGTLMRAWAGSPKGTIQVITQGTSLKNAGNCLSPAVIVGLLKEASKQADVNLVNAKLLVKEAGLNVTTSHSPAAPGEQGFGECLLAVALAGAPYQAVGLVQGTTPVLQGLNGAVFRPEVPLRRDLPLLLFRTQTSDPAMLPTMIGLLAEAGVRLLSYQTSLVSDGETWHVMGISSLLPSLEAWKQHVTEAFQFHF
Assay: Full length (FL) PHGDH Diaphorase coupled assay (20 uM NAD)
Format: biochemical
Settings: full-length PHGDH 10 nM, 30° C. 60 minutes, resorufin fluorescence
Protocol: PHGDH activity was determined by detecting the NADH produced during the reaction. Diaphorase was used to catalyze the oxidation of NADH with the concomitant reduction of resazurin to the fluorescent product resorufin. Resorufin fluorescence quantitatively reflected the production of NADH by the PHGDH reaction. To drive the forward reaction, two enzymes in the serine synthesis pathway subsequent to PHGDH, Phosphoserine aminotransferase (PSAT1) and phosphoserine phosphatase (PSPH) were also added to the reaction.

Row | IC50 [µM] | Structure (SMILES)
1 | 1 to 5 | Cn1c(C(=O)NC2(c3ccccc3)CCN(S(=O)(=O)Nc3cnccn3)CC2)cc2c(Cl)c(Cl)ccc21 [I-152 e3]
2 | 5 to 10 | CC(=O)Nc1cccc(C2(NC(=O)c3cc4c(Cl)c(Cl)ccc4n3C)CCN(S(=O)(=O)NC(C)=O)CC2)c1 [I-153 e2]
3 | 5 to 10 | CC(=O)NS(=O)(=O)N1CCC(NC(=O)c2cc3c(Cl)c(Cl)ccc3n2C)(c2cccc(C#N)c2)CC1 [I-154 e4]
